Values after ≈ are worked out from the molar mass of the structure shown.
Experiments:
PDE4A = biological target: T1, PDE4A (Homo sapiens, UniProt P27815); assay: Inhibition of PDE4 isozymes ([3H]cAMP SPA): PDE4A; format: biochemical; conditions: @ 0.5 μg/ml, pH 7.4 Tris buffer
T1 construct: purchased Fab Gennix International Inc. (Frisco, Tex./USA)
Protocol: (§1) Inhibition of PDE4 Isozymes: Compounds of the instant invention were evaluated for their ability to inhibit isozymes of phosphodiesterase 4 (PDE4) obtained from Fab Gennix International Inc. (Frisco, Tex./USA) according to a literature method. […] In brief, a compound at a designated dose was assayed for their ability to inhibit the hydrolysis of cAMP by a PDE4 isozyme in pH 7.4 Tris buffer. The resulting level of cAMP was determined by the scintillation proximity assay (SPA) using a SPA kit from Amersham Biosciences according to the supplier's instruction manual (TRKQ7090 Phosphodiesterase [^3H]cAMP SPA enzyme assay).

PDE4D = biological target: T2, PDE4D (Homo sapiens, UniProt Q08499); assay: Inhibition of PDE4 isozymes ([3H]cAMP SPA): PDE4D; format: biochemical; conditions: @ 0.1 μg/ml, pH 7.4 Tris buffer
T2 construct: purchased Fab Gennix International Inc. (Frisco, Tex./USA)
Protocol: as §1

[1] = tested on: production of TNF-α in rat PBMCs; assay: Inhibition of TNF-α production in rat PBMCs (LPS/IFN-γ stimulated, ELISA); format: cell-based; conditions: PBMC; rat PBMCs, LPS + IFN-γ, 18 hours
Protocol: (§2) Compounds of this invention were evaluated for their ability to inhibit the production of TNF-α in stimulated immune cells. […] Compounds of the present invention were evaluated for their therapeutic activity in animal models for inflammatory or immunological disorders. Also compounds of this invention were assayed for their ability to inhibit PDE4 isozymes.
Inhibition of TNF-α Production in Rat PBMCs: Compounds of the present invention were evaluated for their ability to inhibit the production of TNF-α in rat peripheral blood mononuclear cells (PBMCs) as described in the literature. [Exp. Geront. vol 37, 235-247 (2002)] In brief, 6 ml rat blood drawn from the abdominal vein as treated with ACD (acid/citrate/dextrose) was carefully added in a tube containing 6 ml Ficoll 1077, and the tube was centrifuged for 30 min at 1500 rpm (415 G) at room temperature. The cell fraction (middle fraction) was suspended in a 50 ml tube containing phosphate buffered saline (PBS). The tube was centrifuged for 5 min at 2000 rpm (737 G). The resulting pellet was suspended in 6 ml PBS and 6 ml Ficoll 1077, and centrifuged for 30 min at 1500 rpm (415 G) at room temperature to remove remaining plasma. The cell fraction was suspended in PBS and centrifuged for 5 min at 2000 rpm. Such a washing was repeated twice. Then the collected cells were suspended in 10 ml RPMI-1640 containing 10% FBS and further diluted to contain 4×10^6 cells per ml. The cell suspension was dispensed into a 96-well plate at 100 μl per well, which was pre-supplemented with 1 μl of either DMSO (placebo) or a DMSO stock solution containing a designated concentration of a compound of this invention. The plate was cultured for an hour at 37° C. under 5% CO2 and 95% O2. To each well, was added 100 μl RPMI-1640 containing 0.1 μg/ml LPS, 5 U/ml IFN-γ, and 10% FBS. Then the plate was subjected to a culture for 18 hours at 37° C. under 5% CO2 and 95% O2. An aliquot of the supernatant from each well was subjected to an ELISA assay to determine the TNF-α level in the well.

[2] = tested on: colitis induced by dextran sulfate sodium (DSS) in Balb/c mice; assay: DSS-induced colitis in mice; format: in vivo; conditions: 50 mg/kg BID oral, day 11, p>0.05
Protocol: Therapeutic Effect in DSS-induced Colitis: Compounds of the present invention were evaluated for their ability to treat colitis induced by dextran sulfate sodium (DSS) in mice according to the literature. […] In brief, female Balb/c mice weighing 16-20 g were randomized into groups (5˜6 per group) and were allowed from day 1 free access to water containing 5% DSS. A compound of this invention or sulfasalazine in 5% Tween 80 at 10 ml/kg was orally administered twice a day. Clinical activity score of each animal was measured on a daily basis by evaluating the stool consistency, body weight and rectal bleeding.

[3] = tested on: production of TNF-α in mice stimulated with LPS; assay: In vivo inhibition of TNF-α production in mice stimulated with LPS; conditions: Mus musculus, 2 h, LPS i.p., plasma at hour 2, read-out: % Inhibition of in vivo TNF-α production @ dose; for inhibition in vivo at 3 mg/kg: 3 mg/kg oral gavage
Protocol: [J. Pharmacol. Exp. Therapeut. vol 279, 1453-1461 (1996)] In brief, either a compound of the instant invention with vehicle or vehicle only (5% Tween 80) was administered by oral gavage (10 ml/kg body weight) at hour 0 to mice (Balb/C or ICR, 25˜30 g) fasted overnight. The mice were subjected to a peritoneal injection with […] LPS per mouse at hour 0.5, and blood was drawn from the abdominal vein at hour 2 following euthanasia with CO2. Then plasma separated from the drawn blood by centrifugation was subjected to an ELISA assay to measure the level of TNF-α.

[4] = tested on: cAMP degradation in U937 cells; assay: In vitro inhibition of cAMP degradation in U937 cells (forskolin, cAMP EIA); format: cell-based; conditions: Homo sapiens, U-937, 10 μM forskolin
Protocol: In vitro Inhibition of cAMP Degradation in U937 Cells: Compounds of this invention were evaluated for their ability to inhibit in cells the hydrolysis of cAMP induced by forskolin, an adenylate cyclase stimulator. In brief, 3×10^5 U937 cells per well on a 96-well plate were incubated for 10 min at 37° C. in 200 μl RPMI-1640 containing 10% FBS, which was followed by treatment of either DMSO or a DMSO stock solution of a compound of the present invention at a designated dose. Then the cells were stimulated with 10 μM forskolin for 10 min at 37° C. The plate was centrifuged for 5 min at 1500 rpm. 120 μl of the supernatant was carefully removed from each well and 200 μl of lysis agent 1B was added to the well. Then the cell lysate was assayed to determine the level of cAMP by enzyme immunoassay (EIA) using a cAMP EIA kit from Amersham Pharmacia Biotech (Kit #RPN225). IC50's were determined for compounds of this invention from dose response curves for cAMP levels.

[5] = tested on: production of TNF-α in human PBMCs; assay: Inhibition of TNF-α production in human PBMCs (ELISA); format: cell-based; conditions: PBMC
Protocol: as §2
Inhibition of TNF-α Production in Human PBMCs: Compounds of the present invention were evaluated for their ability to inhibit the production of TNF-α in human PBMCs as described in the literature. [J. Med. Chem. vol 39, 3238-3240 (1996)] Blood was freshly drawn from healthy human subjects as treated with ACD to isolate human PBMCs according to the procedure employed for rat PBMCs. The employed assay method for the ELISA against human TNF-α was essentially identical to that for the rat TNF-α ELISA assay.

T1 sequence (P27815 whole entry): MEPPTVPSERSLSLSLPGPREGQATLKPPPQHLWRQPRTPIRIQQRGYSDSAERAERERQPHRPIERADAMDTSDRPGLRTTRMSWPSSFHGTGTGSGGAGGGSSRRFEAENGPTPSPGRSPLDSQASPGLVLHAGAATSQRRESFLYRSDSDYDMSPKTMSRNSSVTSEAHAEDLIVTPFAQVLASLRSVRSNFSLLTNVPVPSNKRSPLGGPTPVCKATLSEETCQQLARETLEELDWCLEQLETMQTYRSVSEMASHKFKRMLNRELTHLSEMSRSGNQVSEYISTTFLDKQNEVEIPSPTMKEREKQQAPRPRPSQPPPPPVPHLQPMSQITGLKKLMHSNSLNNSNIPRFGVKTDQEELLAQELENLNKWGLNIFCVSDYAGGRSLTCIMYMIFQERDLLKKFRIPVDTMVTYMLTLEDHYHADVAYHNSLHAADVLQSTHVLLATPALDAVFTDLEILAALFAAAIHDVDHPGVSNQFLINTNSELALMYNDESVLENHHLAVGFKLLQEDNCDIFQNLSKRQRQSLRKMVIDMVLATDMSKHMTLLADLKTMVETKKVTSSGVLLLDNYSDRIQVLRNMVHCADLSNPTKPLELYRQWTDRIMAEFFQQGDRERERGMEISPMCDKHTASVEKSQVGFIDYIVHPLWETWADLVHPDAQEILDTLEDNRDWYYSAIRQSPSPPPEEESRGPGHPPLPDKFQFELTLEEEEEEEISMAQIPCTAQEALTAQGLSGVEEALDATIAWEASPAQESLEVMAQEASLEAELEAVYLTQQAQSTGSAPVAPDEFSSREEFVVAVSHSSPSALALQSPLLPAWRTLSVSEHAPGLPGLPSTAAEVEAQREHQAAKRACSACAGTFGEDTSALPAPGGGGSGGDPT
T2 sequence (Q08499 whole entry): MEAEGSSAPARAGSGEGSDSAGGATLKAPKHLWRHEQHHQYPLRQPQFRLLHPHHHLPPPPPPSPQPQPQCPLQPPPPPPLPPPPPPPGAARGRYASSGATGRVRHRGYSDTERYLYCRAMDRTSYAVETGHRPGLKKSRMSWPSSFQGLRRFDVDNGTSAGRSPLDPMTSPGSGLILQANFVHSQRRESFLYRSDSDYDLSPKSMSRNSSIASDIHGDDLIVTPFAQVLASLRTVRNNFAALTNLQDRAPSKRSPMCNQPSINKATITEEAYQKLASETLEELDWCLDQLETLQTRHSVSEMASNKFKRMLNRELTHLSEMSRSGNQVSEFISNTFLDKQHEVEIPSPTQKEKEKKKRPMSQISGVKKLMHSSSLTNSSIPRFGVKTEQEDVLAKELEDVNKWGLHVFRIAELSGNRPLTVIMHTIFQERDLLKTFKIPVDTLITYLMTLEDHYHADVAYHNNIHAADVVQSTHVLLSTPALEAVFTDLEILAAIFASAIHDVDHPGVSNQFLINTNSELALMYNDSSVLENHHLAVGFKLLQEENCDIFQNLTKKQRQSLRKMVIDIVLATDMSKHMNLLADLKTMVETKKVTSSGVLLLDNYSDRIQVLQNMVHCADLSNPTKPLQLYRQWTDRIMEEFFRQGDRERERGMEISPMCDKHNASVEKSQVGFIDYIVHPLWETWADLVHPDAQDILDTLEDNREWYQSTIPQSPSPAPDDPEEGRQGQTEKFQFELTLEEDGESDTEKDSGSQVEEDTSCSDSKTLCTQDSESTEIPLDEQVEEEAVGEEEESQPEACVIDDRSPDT

ON=C1CCC(C2CCCC2)=C1c1ccc(F)c(Cl)c1 [Example 3, 2-(3-chloro-4-fluorophenyl)-3-cyclopentyl-2-cyclopenten-1-one oxime]
inhibition at 0.5 µg/mL (PDE4A): 89% | inhibition at 0.1 µg/mL (PDE4D): 78% | IC50 [1]: 0.053 µg/mL | melting point: 143 to 144 °C

O=C(O)c1cc(/N=N/c2ccc(S(=O)(=O)Nc3ccccn3)cc2)ccc1O [sulfasalazine]
improvement in the clinical score activity from the control group [2]: 19%

CCCCC1=C(c2ccc3c(c2)OCO3)C(=NO)CC1 [Example 45, 3-butyl-2-(3,4-methylenedioxyphenyl)-2-cyclopenten-1-one oxime]
inhibition in vivo at 1 mg/kg ([3]; 1 mg/kg oral gavage): 42% | IC50 [1]: 0.69 µg/mL | IC50 [4]: 0.87 µg/mL (≈ 3.18 µM) | melting point: 116 to 120 °C | IC50 [5]: 0.8 µg/mL (≈ 2.93 µM)

COc1ccc(C2CNC(=O)C2)cc1OC1CCCC1 (centres unmarked) [Rolipram, rolipram, reference compound]
inhibition in vivo at 0.2 mg/kg ([3]; 0.2 mg/kg oral gavage): ~50% | IC50 [1]: 0.05 to 0.1 µg/mL | IC50 [4]: 0.27 µg/mL (≈ 0.981 µM) | IC50 [5]: 0.01 to 0.1 µg/mL (≈ 0.0363 to 0.363 µM)

ON=C1CCC(C2CCCCC2)=C1c1ccc(F)c(Cl)c1 [Example 28, 2-(3-chloro-4-fluorophenyl)-3-cyclohexyl-2-cyclopenten-1-one oxime]
inhibition at 0.5 µg/mL (PDE4A): 58% | inhibition in vivo at 3 mg/kg [3]: 88% | inhibition at 0.1 µg/mL (PDE4D): 87% | IC50 [1]: 0.13 µg/mL | melting point: 158 to 160 °C

ON=C1CCC(C2CCCC2)=C1c1ccc(F)cc1 [Example 1, 3-cyclopentyl-2-(4-fluorophenyl)-2-cyclopenten-1-one oxime]
inhibition at 0.5 µg/mL (PDE4A): 72% | inhibition in vivo at 3 mg/kg [3]: 72% | inhibition at 0.1 µg/mL (PDE4D): 79% | IC50 [1]: 0.12 µg/mL | melting point: 204 to 205 °C

ON=C1CCC(C2CCCC2)=C1c1ccc2c(c1)OCO2 [Example 10, 3-cyclopentyl-2-(3,4-methylenedioxyphenyl)-2-cyclopenten-1-one oxime]
inhibition at 0.5 µg/mL (PDE4A): 33% | inhibition at 0.1 µg/mL (PDE4D): 38% | IC50 [1]: 0.097 µg/mL | melting point: 186 to 188 °C

CCCC1=C(c2ccc(F)c(F)c2)C(=NO)CC1 [Example 79, 2-(3,4-difluorophenyl)-3-propyl-2-cyclopenten-1-one oxime]
inhibition at 0.5 µg/mL (PDE4A): 0% | inhibition in vivo at 3 mg/kg [3]: 85% | inhibition at 0.1 µg/mL (PDE4D): 23% | IC50 [1]: 0.18 µg/mL | melting point: 136 to 137 °C

ON=C1CCC(C2CCCC2)=C1c1ccc(F)c(F)c1 [Example 2, 3-cyclopentyl-2-(3,4-difluorophenyl)-2-cyclopenten-1-one oxime]
inhibition in vivo at 0.3 mg/kg ([3]; 0.3 mg/kg oral gavage): 78% | IC50 [1]: 0.035 µg/mL | IC50 [4]: 0.1 µg/mL (≈ 0.361 µM) | melting point: 173 to 174 °C | IC50 [5]: 0.072 µg/mL (≈ 0.26 µM)

— patent publication US8013187B2, “2-cyclopenten-1-one oxime derivatives inhibiting production of TNF-α” (Amorepacific Corporation, priority 2004, dated 2011)
